{
  "source": "patent EP4620459A1",
  "about": "“METFORMIN HYDROCHLORIDE ENTERIC-COATED TABLET” (Yayan (Tianjin) Biomedical Technology Center (Limited …, priority 2023, dated 2025)",
  "origin": "cited, not measured here",
  "details": "nausea, abdominal pain, abdominal discomfort, etc.",
  "data": [
    {"compound": "CN(C)C(=N)N=C(N)N", "note": "[metformin]", "values": [
      {"measurement": "incidence of gastrointestinal adverse reactions", "value": "20-30%"}
    ]}
  ]
}
